Columns and labels:
Conditions in all cases: incubation time: 72 h
[1] = system: MCF-10A; experiment: normalised response (% of control), CellTiter-Glo; higher = more viable cells (100 = DMSO, 0 = benzethonium chloride kill control)
Method: (§1)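 DSRT, 72 h incubation, CellTox Green / CellTiter-Glo readout. Signal is normalised to DMSO and benzethonium chloride controls. Value is the normalised response at dose 3.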

[2] = system: HCC1599; experiment: as above
Method: as §1

[3] = system: MFM-223; experiment: as above
Method: as §1

[4] = system: SK-BR-3; experiment: as above
Method: as §1

[5] = system: CAL-51; experiment: as above
Method: as §1

[6] = system: MDA-MB-468; experiment: as above
Method: as §1

[7] = system: BT-549; experiment: as above
Method: as §1

[8] = system: BT-474; experiment: as above
Method: as §1

[9] = system: MDA-MB-231; experiment: as above
Method: as §1

[10] = system: HCC1937; experiment: as above
Method: as §1

[11] = system: Hs578T; experiment: as above
Method: as §1

[12] = system: DU-4475; experiment: as above
Method: as §1

[13] = system: CAL-148; experiment: as above
Method: as §1

[14] = system: HDQ-P1; experiment: as above
Method: as §1

[15] = system: MDA-MB-436; experiment: as above
Method: as §1

[16] = system: HCC1143; experiment: as above
Method: as §1

[17] = system: MDA-MB-453; experiment: as above
Method: as §1

[18] = system: CAL-85-1; experiment: as above
Method: as §1

[19] = system: CAL-120; experiment: as above
Method: as §1

[20] = system: HCC1599; experiment: normalised response (% of control), CellTox Green; higher = less cell death (100 = DMSO, 0 = benzethonium chloride kill control)
In short: (§2)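 A 20 µl suspension of breast cancer cells was seeded into each well of 384-well plates containing compound at 5 concentrations in 10-fold steps over a compound-specific 10,000-fold range. After 72 h incubation, CellTox Green fluorescence (485/520 nm) was read first, and CellTiter-Glo luminescence was read after 10 min at room temperature. Each plate was normalised against 0.1 % DMSO (100) and a positive kill control (0), and each value is the normalised signal at one concentration.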

[21] = system: MFM-223; experiment: as above
In short: as §2

[22] = system: CAL-51; experiment: as above
In short: as §2

[23] = system: MDA-MB-468; experiment: as above
In short: as §2

[24] = system: BT-549; experiment: as above
In short: as §2

[25] = system: BT-474; experiment: as above
In short: as §2

[26] = system: MDA-MB-231; experiment: as above
In short: as §2

[27] = system: HCC1937; experiment: as above
In short: as §2

[28] = system: Hs578T; experiment: as above
In short: as §2

[29] = system: DU-4475; experiment: as above
In short: as §2

[30] = system: CAL-148; experiment: as above
In short: as §2

[31] = system: HDQ-P1; experiment: as above
In short: as §2

[32] = system: MDA-MB-436; experiment: as above
In short: as §2

[33] = system: HCC1143; experiment: as above
In short: as §2

[34] = system: MDA-MB-453; experiment: as above
In short: as §2

[35] = system: CAL-85-1; experiment: as above
In short: as §2

[36] = system: CAL-120; experiment: as above
In short: as §2

[37] = system: MCF-10A; experiment: as above
In short: as §2

SMILES | normalised response [1] [%] | normalised response [2] [%] | normalised response [3] [%] | normalised response [4] [%] | normalised response [5] [%] | normalised response [6] [%] | normalised response [7] [%] | normalised response [8] [%] | normalised response [9] [%] | normalised response [10] [%] | normalised response [11] [%] | normalised response [12] [%] | normalised response [13] [%] | normalised response [14] [%] | normalised response [15] [%] | normalised response [16] [%] | normalised response [17] [%] | normalised response [18] [%] | normalised response [19] [%] | normalised response [20] [%] | normalised response [21] [%] | normalised response [22] [%] | normalised response [23] [%] | normalised response [24] [%] | normalised response [25] [%] | normalised response [26] [%] | normalised response [27] [%] | normalised response [28] [%] | normalised response [29] [%] | normalised response [30] [%] | normalised response [31] [%] | normalised response [32] [%] | normalised response [33] [%] | normalised response [34] [%] | normalised response [35] [%] | normalised response [36] [%] | normalised response [37] [%]
Cc1cc(Nc2nc(N[C@@H](C)c3ncc(F)cn3)ncc2Cl)[nH]n1 [AZD1480] (10 nM) | 92.3 | 107 | 96 | 97 | 114 | 104 | 102 | 99.9 | 96.1 | 98.9 | 92.2 | 93.9 | 93.5 | 97.1 | 106 | 103 | 88.9 | 103 | 98.4 | 99.4 | 96.4 | 111 | 136 | 65.3 | 98.2 | 95.6 | 92.2 | 109 | 96.6 | 66.3 | 97.8 | 73.2 | 106 | 98.8 | 108 | 95.6 | 
CC1(COc2ccc3c(c2)ncn3-c2ccc3cccc(N4CCC(N)CC4)c3n2)COC1 [Crenolanib] (100 nM) | 110 | 110 | 104 | 114 | 77.8 | 107 | 103 | 108 | 113 | 102 | 103 | 104 | 107 | 105 | 103 | 109 | 112 | 112 | 97.9 | 99.3 | 94.3 | 90.2 | 99.6 | 89.1 | 103 | 120 | 80.2 | 107 | 103 | 82.2 | 105 |  |  | 108 | 104 | 97.2 | 95.4
Cn1cc(C2=C(c3cn(C4CCN(Cc5ccccn5)CC4)c4ccccc34)C(=O)NC2=O)c2ccccc21 [Enzastaurin] (100 nM) | 101 | 90.6 | 106 | 104 | 65 | 96.9 | 98.3 | 103 | 103 | 101 | 98.2 | 99.4 | 106 | 94 | 102 | 103 | 105 | 107 | 99.1 | 115 | 107 | 104 | 56.9 | 95.4 | 101 | 102 | 102 | 111 | 104 | 95 | 114 | 86 |  | 102 | 99.2 | 104 | 104
Nc1ccn([C@@H]2O[C@H](CO)[C@@H](O)C2(F)F)c(=O)n1 [Gemcitabine] (10 nM) | 102 | 89.5 | 100 | 79.6 | 82 | 52.2 | 61.3 | 89.3 | 85.3 | 90.8 | 99.3 | 96.8 | 77.9 | 102 | 64.2 | 68.3 | 139 | 85.6 | 94.9 | 100 | 95.2 | 84.7 | 48.3 | 92.5 | 97.1 | 97.9 | 111 | 102 | 101 | 36.9 |  | 97.1 | 102 | 105 | 85 | 99.7 | 103
